# Calls of active or inactive are those of the source. The rule behind the calls is not given here.
# Columns and labels:
# Escherichia coli [1] = assay: Antibiofilm activity against Escherichia coli ATCC 25922 assessed as reduction in biofilm inhibition at 0.5 to 1 times of MIC after 24 hrs by crystal violet staining based assay; format: functional, organism-based
# Staphylococcus aureus [2] = assay: Antibacterial activity against Staphylococcus aureus ATCC 25923 after 18 hrs in presence of NaCl by CLSI based broth microdilution method (reference value: 8 microM); format: functional; details: ATCC 25923, 18 h
# Staphylococcus aureus [3] = assay: Antibiofilm activity against Staphylococcus aureus ATCC 25923 at 2 times of MIC after 24 hrs by crystal violet staining based assay; format: functional, organism-based
# Klebsiella pneumoniae = assay: Potentiation of rifampicin-induced antibacterial activity against Klebsiella pneumoniae ATCC 700603 assessed as FICI after 18 hrs by checker board assay; format: functional
# Escherichia coli [4] = assay: Antibacterial activity against Escherichia coli ATCC 25922 after 18 hrs in presence of KCl by CLSI based broth microdilution method (reference value: 16 microM); format: functional; details: ATCC 25922, 18 h
# Staphylococcus aureus [5] = assay: Antibacterial activity against Staphylococcus aureus ATCC 25923 after 18 hrs in presence of MgCl2 by CLSI based broth microdilution method (reference value: 8 microM); format: functional; details: ATCC 25923, 18 h
# Staphylococcus aureus [6] = assay: Antibacterial activity against Staphylococcus aureus ATCC 25923 after 18 hrs in presence of FeCl3 by CLSI based broth microdilution method (reference value: 8 microM); format: functional; details: ATCC 25923, 18 h
# Escherichia coli [7] = assay: Antimicrobial activity against Escherichia coli ATCC 25922 preincubated for 1 hr in presence of 10% mouse serum and measured after 18 hrs by CLSI-based broth microdilution assay (reference value: 16 microM); format: functional
# Escherichia coli [8] = assay: Induction of outer membrane permeabilization in Escherichia coli ATCC 25922 measured up to 12 mins by NPN-dye based assay; format: organism-based
# Staphylococcus aureus [9] = assay: Antibacterial activity against Staphylococcus aureus ATCC 25923 after 18 hrs in presence of KCl by CLSI based broth microdilution method (reference value: 8 microM); format: functional; details: ATCC 25923, 18 h
# Escherichia coli [10] = assay: Antibacterial activity against Escherichia coli ATCC 25922 after 18 hrs in presence of FeCl3 by CLSI based broth microdilution method (reference value: 16 microM); format: functional; details: ATCC 25922, 18 h
# Escherichia coli [11] = assay: Antibacterial activity against Escherichia coli ATCC 25922 after 18 hrs in presence of NaCl by CLSI based broth microdilution method (reference value: 16 microM); format: functional; details: ATCC 25922, 18 h
# Staphylococcus aureus [12] = assay: Ratio of antibacterial activity against Staphylococcus aureus ATCC 25923 in presence of NaCl to antibacterial activity against Staphylococcus aureus ATCC 25923; format: functional
# Escherichia coli [13] = assay: Antimicrobial activity against Escherichia coli ATCC 25922 preincubated for 6 hrs in presence of 10% mouse serum and measured after 18 hrs by CLSI-based broth microdilution assay (reference value: 16 microM); format: functional
# Escherichia coli [14] = assay: Antimicrobial activity against Escherichia coli ATCC 25922 at 1 mM preincubated for 6 hrs in presence of 2 ug/ml chymotrypsin and measured after 18 hrs by microplate reader analysis; format: functional, organism-based
# Escherichia coli [15] = assay: Antibacterial activity against Escherichia coli ATCC 25922 after 18 hrs in presence of MgCl2 by CLSI based broth microdilution method (reference value: 16 microM); format: functional; details: ATCC 25922, 18 h
# Staphylococcus aureus [16] = assay: Antibacterial activity against methicillin-resistant Staphylococcus aureus 936 after 18 hrs by CLSI based broth microdilution method; format: functional; details: Staphylococcus aureus, 936, 18 h
# Erythrocyte = assay: Hemolytic activity in human RBC measured after 1 hr by microplate reader analysis; format: ADME, cell-based
# Escherichia coli [17] = assay: Antibacterial activity against Escherichia coli ATCC 25922 after 18 hrs in presence of KCl by CLSI based broth microdilution method (reference value: 8 microM); format: functional; details: ATCC 25922, 18 h
# Escherichia coli [18] = assay: Antimicrobial activity against Escherichia coli ATCC 25922 preincubated for 6 hrs in presence of 10% mouse serum and measured after 18 hrs by CLSI-based broth microdilution assay (reference value: 8 microM); format: functional
# Staphylococcus aureus [19] = assay: Antibiofilm activity against Staphylococcus aureus ATCC 25923 at 1 to 2 times of MIC after 24 hrs by crystal violet staining based assay; format: functional, organism-based
# Escherichia coli [20] = assay: Antibacterial activity against Escherichia coli ATCC 25922 after 18 hrs in presence of NaCl by CLSI based broth microdilution method (reference value: 8 microM); format: functional; details: ATCC 25922, 18 h
# Escherichia coli [21] = assay: Antibacterial activity against Escherichia coli ATCC 25922 after 18 hrs in presence of MgCl2 by CLSI based broth microdilution method (reference value: 8 microM); format: functional; details: ATCC 25922, 18 h
# [22] = Cytotoxicity against mouse RAW264.7 cells assessed as cell proliferation at 4 uM after 1 hr by MTT assay relative to control; format: cell-based; details: read-out: Activity
# Escherichia coli [23] = assay: Antimicrobial activity against Escherichia coli ATCC 25922 preincubated for 1 hr in presence of 10% mouse serum and measured after 18 hrs by CLSI-based broth microdilution assay (reference value: 8 microM); format: functional
# Escherichia coli [24] = assay: Antibacterial activity against Escherichia coli ATCC 25922 after 18 hrs in presence of FeCl3 by CLSI based broth microdilution method (reference value: 8 microM); format: functional; details: ATCC 25922, 18 h
# Escherichia coli [25] = assay: Antibiofilm activity against Escherichia coli ATCC 25922 assessed as reduction in biofilm inhibition at MIC after 24 hrs by crystal violet staining based assay relative to control; format: functional
Compound,inhibition (Escherichia coli [1]),MIC (Staphylococcus aureus [2]) [µM],inhibition (Staphylococcus aureus [3]),fractional inhibitory concentration index (FICI) (Klebsiella pneumoniae),MIC (Escherichia coli [4]) [µM],MIC (Staphylococcus aureus [5]) [µM],MIC (Staphylococcus aureus [6]) [µM],MIC (Escherichia coli [7]) [µM],Activity (Escherichia coli [8]),MIC (Staphylococcus aureus [9]) [µM],MIC (Escherichia coli [10]) [µM],MIC (Escherichia coli [11]) [µM],Ratio (Staphylococcus aureus [12]),MIC (Escherichia coli [13]) [µM],Activity (Escherichia coli [14]),MIC (Escherichia coli [15]) [µM],MIC (Staphylococcus aureus [16]) [µM],MHC10 (Erythrocyte) [µM],MIC (Escherichia coli [17]) [µM],MIC (Escherichia coli [18]) [µM],also measured
CCCCCCCCCC(=O)NCC(=O)N[C@@H](CC(C)C)C(=O)N[C@@H](CC(C)C)C(=O)N[C@H](CCCCN)C(=O)N[C@@H](CCCNC(=N)N)C(=O)N[C@H](C(=O)N[C@H](CCCCN)C(=O)N[C@H](C(=O)N[C@@H](CC(C)C)C(=O)N[C@@H](CC(C)C)C(N)=O)[C@@H](C)O)[C@@H](C)CC,Active,8,Active,0.3125,16,8,8,16,Dose-dependent effect,8,8,32,2 - 4,16,Active,16,8,64,–,–,–
CCCCCCCCCCCC(=O)NCC(=O)N[C@@H](CC(C)C)C(=O)N[C@@H](CC(C)C)C(=O)N[C@H](CCCCN)C(=O)N[C@@H](CCCNC(=N)N)C(=O)N[C@H](C(=O)N[C@H](CCCCN)C(=O)N[C@H](C(=O)N[C@@H](CC(C)C)C(=O)N[C@@H](CC(C)C)C(N)=O)[C@@H](C)O)[C@@H](C)CC,Active,–,Active,0.5625,4,–,–,16,Dose-dependent effect,–,4,16,2 - 4,32,Active,16,16,16,–,–,–
CCCCCCCCCCCC(=O)NC(Cc1cn(CCCC[C@H](NC(C)=O)C(=O)NCC(=O)N[C@@H](CC(C)C)C(=O)N[C@@H](CC(C)C)C(=O)N[C@H](CCCCN)C(=O)N[C@@H](CCCNC(=N)N)C(=O)N[C@H](C(=O)N[C@H](CCCCN)C(=O)N[C@H](C(=O)N[C@@H](CC(C)C)C(=O)N[C@@H](CC(C)C)C(N)=O)[C@@H](C)O)[C@@H](C)CC)nn1)C(=O)NCC(=O)N[C@@H](CC(C)C)C(=O)N[C@@H](CC(C)C)C(=O)N[C@H](CCCCN)C(=O)N[C@@H](CCCNC(=N)N)C(=O)N[C@H](C(=O)N[C@H](CCCCN)C(=O)N[C@H](C(=O)N[C@@H](CC(C)C)C(=O)N[C@@H](CC(C)C)C(N)=O)[C@@H](C)O)[C@@H](C)CC (stereo not given in full),–,8,–,0.5,–,8,16,–,Dose-dependent effect,16,–,–,2 - 4,–,Active,–,16,16,16,32,"inhibition (Staphylococcus aureus [19]): Active; MIC (Escherichia coli [20]): 16 µM; MIC (Escherichia coli [21]): 32 µM; viability at 1 h, 4 µM [22]: < 80%; MIC (Escherichia coli [23]): 16 µM; MIC (Escherichia coli [24]): 4 µM; inhibition (INH) (Escherichia coli [25]): >50%"
CCCCCCCCCC(=O)NC(Cc1cn(CCCC[C@H](NC(C)=O)C(=O)NCC(=O)N[C@@H](CC(C)C)C(=O)N[C@@H](CC(C)C)C(=O)N[C@H](CCCCN)C(=O)N[C@@H](CCCNC(=N)N)C(=O)N[C@H](C(=O)N[C@H](CCCCN)C(=O)N[C@H](C(=O)N[C@@H](CC(C)C)C(=O)N[C@@H](CC(C)C)C(N)=O)[C@@H](C)O)[C@@H](C)CC)nn1)C(=O)NCC(=O)N[C@@H](CC(C)C)C(=O)N[C@@H](CC(C)C)C(=O)N[C@H](CCCCN)C(=O)N[C@@H](CCCNC(=N)N)C(=O)N[C@H](C(=O)N[C@H](CCCCN)C(=O)N[C@H](C(=O)N[C@@H](CC(C)C)C(=O)N[C@@H](CC(C)C)C(N)=O)[C@@H](C)O)[C@@H](C)CC (stereo not given in full),–,8,–,0.5,–,4,8,–,Dose-dependent effect,16,–,–,2 - 4,–,Active,–,16,32,16,16,"inhibition (Staphylococcus aureus [19]): Active; MIC (Escherichia coli [20]): 8 µM; MIC (Escherichia coli [21]): 16 µM; viability at 1 h, 4 µM [22]: < 80%; MIC (Escherichia coli [23]): 8 µM; MIC (Escherichia coli [24]): 4 µM; inhibition (INH) (Escherichia coli [25]): >50%"
